According to ChEMBL document CHEMBL5726504, “Substituted cyclopentanes, tetrahydrofuranes and pyrrolidines as orexin receptor antagonists” (2017):

Biological target: T1, Orexin/Hypocretin receptor type 1 (Homo sapiens, UniProt O43613)
T1 sequence (O43613 whole entry): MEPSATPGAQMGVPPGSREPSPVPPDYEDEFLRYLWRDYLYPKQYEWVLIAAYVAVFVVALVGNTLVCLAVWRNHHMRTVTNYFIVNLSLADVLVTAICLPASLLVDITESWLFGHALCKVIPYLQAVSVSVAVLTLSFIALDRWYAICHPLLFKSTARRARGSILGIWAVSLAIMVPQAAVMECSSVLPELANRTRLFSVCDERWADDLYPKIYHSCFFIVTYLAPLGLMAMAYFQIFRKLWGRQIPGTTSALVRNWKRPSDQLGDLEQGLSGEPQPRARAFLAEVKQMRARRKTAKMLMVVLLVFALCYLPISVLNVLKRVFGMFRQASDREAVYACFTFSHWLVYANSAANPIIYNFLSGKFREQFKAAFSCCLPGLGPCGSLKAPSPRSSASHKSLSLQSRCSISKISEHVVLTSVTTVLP
Experiment: FLIPR Assay: Orexin antagonist activity was determined by measuring changes in intracellular calcium levels using a Ca2+ sensitive fluorescent dye. The changes in fluorescent signal were monitored by Fluorescent Imaging Plate Reader (FLIPR) technology available from Molecular Devices, LLC, U.S.A. Orexin mediated increases in intracellular Ca2+ concentration were readily detected upon activation with orexin-A. Twenty-four hours prior to the assay, RBL-2H3 cells stably expressing either human orexin receptor 1 or human orexin receptor 2 were seeded in cell culture medium in black, clear-bottom 384-well plates (commercially available from Corning Inc., U.S.A.) and grown overnight at 37° C., 5% CO2. On the day of the assay, cell culture media was removed and cells were loaded with Calcium 5 Dye (commercially sold by Molecular Devices, LLC, U.S.A.) for 1 hour at 37° C., 5% CO2. Test compounds (at 10 point half log concentration response curves from 10 uM) were added to cells for 15 minutes prior to the addition of orexin-A to all wells, to achieve a final concentration that produces approximately an 80% maximal response.
Type: cell-based

## COc1ccc(Br)nc1C(=O)N[C@H]1CCC[C@@H]1Nc1nc2ccc(F)cc2s1
  IC50: 0.128 µM
